Among the data in ChEMBL document CHEMBL3576827, “New anti-inflammatory tocopherol-derived metabolites from the Taiwanese soft coral Cladiella hirsuta” (Bioorg Med Chem Lett, 2015) are IC50 and inhibition values, retold here.

Each structure is given as a SMILES string.

What all share (conditions): Neutrophil
Assay [1] is described as follows: Antiinflammatory activity in human neutrophils assessed as inhibition of fMLP/CB-induced elastase release using MeO-Suc-Ala-Ala-Pro-Val-p-nitroanilide as elastase substrate preincubated for 5 mins followed by fMLP/CB-induction by spectroscopic analysis. It is filed as functional, cell-based.
The nature of assay [2]: Antiinflammatory activity in human neutrophils assessed as inhibition of fMLP/CB-induced elastase release using MeO-Suc-Ala-Ala-Pro-Val-p-nitroanilide as elastase substrate at 10 uM preincubated for 5 mins followed by fMLP/CB-induction by spectroscopic analysis. It is filed as functional.
Assay [3] in a line: Antiinflammatory activity in human neutrophils assessed as inhibition of fMLP/CB-induced superoxide anion generation by measuring superoxide dismutase-inhibitable reduction of ferricytochrome c at 10 uM preincubated for 5 mins followed by fMLP/CB-induction measured after 10 mins by spectrophotometric analysis. It is filed as functional.
The nature of assay [4]: Antiinflammatory activity in human neutrophils assessed as inhibition of fMLP/CB-induced superoxide anion generation by measuring superoxide dismutase-inhibitable reduction of ferricytochrome c preincubated for 5 mins followed by fMLP/CB-induction measured after 10 mins by spectrophotometric analysis. It is filed as functional, cell-based.

In the case of `COC(=O)C(C)CCC[C@]1(C)CC[C@]2(O1)C(=O)C(C)=C(C)[C@@]2(O)C(C)=O` (stereo not given in full), the results for the IC50 in assay [1] and in assay [4] were 3.7 µM and 4.1 µM, respectively. Also, the inhibition (as a rule, the percentage by which the read-out fell short of the control) at 10 µM in assay [2] came to 89.5%; in assay [3] it was 78.3%.
As for `O=c1cc(N2CCOCC2)oc2c(-c3ccccc3)cccc12` [LY-294002], the IC50 (commonly the concentration at which inhibition is half-maximal) in assay [1] was 1.2 µg/mL; in assay [4], 0.6 µg/mL.
With `COC(=O)C(C)CCCC(C)(O)CCC1=C(C)C(=O)C2(C)OC2(C)C1=O` (stereo not given), the IC50 in assay [1] and in assay [4] was over 10 µM in each case. Moreover, the figures for the inhibition at 10 µM in assay [2] and in assay [3] were 21.2% and 8.5%, respectively.
